Laboratory results from paper PMC10901950, “Neuroprotective and Anti-inflammatory Effects of Rubiscolin-6 Analogs with Proline Surrogates in Position 2” (Neurochemical Research, 2023).
Ends that are not written are not given here.

Tests used:
[1] = tested on: RAW 264.7 cells; test: Intracellular ROS generation in RAW 264.7 cells (not stimulated); assay type: cell-based, mouse; details: 0.1-10 µM, 24 h, DCFH-DA, unstimulated cells
Protocol: The detection of ROS generated in injured cells was evaluated using the 5(6)-carboxy-2ʹ,7ʹ-dichlorofluorescein diacetate (carboxy-H2DCFDA) reagent (Invitrogen, Bleiswijk, Netherlands). After incubation, cells were washed with ice-cold Phosphate-Buffer Saline (PBS). Then, the carboxyl-H2DCFDA (100 µL, 20 µM) reagent was added and incubated for 1 h at 37 °C. Finally, the fluorescence intensity was measured at wavelengths of […], and ROS levels were presented in percentage of control (non-treated cells).

[2] = tested on: SH-SY5Y cells; test: Cytotoxicity on SH-SY5Y cells (MTT); assay type: cell-based, human; details: 10 µM, 24 h
Protocol: The neuroprotective experiments were performed in an in vitro model of a human neuroblastoma cell line (SH-SY5Y) obtained from the German Collection of Microorganisms and Cell Cultures GmbH (DSMZ) Bank (ACC 209). Cells were cultured in Dulbecco’s Modified Eagle’s Medium: Nutrient Mixture F12 (DMEM:F12) supplemented with 1% antibiotic/antimycotic (Amphotericin B, Penicillin and Streptomycin) (Biowest, Nuaillé, France) and 10% (v/v) Fetal Bovine Serum (FBS) (Biowest, Riverside, MO, USA). The anti-inflammatory experiments were performed in an in vitro model of mouse macrophage-like RAW 264.7 cells, purchased from American Type Culture Collection (ATCC, Manassas, VA, USA). Cells were maintained in DMEM medium (Gibco™, Grand Island, NY) and supplemented with 10% bovine calf serum (BCS) (Gibco™, Grand Island, NY) and 1% penicillin–streptomycin (Sigma-Aldrich, St. Louis, MO, USA). Cell cultures were kept at 37 °C in 5% CO2/humidified air.
Cells were incubated with peptides (0.1–10 µM) for 24 h to assess their cytotoxic activity. […] The resulting absorbance was read in a microplate reader (Biotek, Epoch/2 microplate reader, Winooski, VT, USA) at 570 nm.
Cell metabolic activity (cytotoxicity) was calculated as the percentage of the value obtained for cells incubated with compounds compared to control cells treated with the medium.

| Substance | effect on intracellular ROS levels [1] | SH-SY5Y cell viability (cytotoxicity) [2] |
| --- | --- | --- |
| YPLDLF [R-6, rubiscolin-6] | did not affect | – |
| YPLDLF-NH2 [analog 6, Tyr-Pro-Leu-Asp-Leu-Phe-NH2] | – | significantly decreased |
